Where a name gives a salt, the structure may show the parent alone.
Legend:
[1] = tested on: normal human hepatocytes; assay: 60-agent chemical screen, cell viability (Cell-Titer Glo), hepatocytes; type: cell-based; settings: Hepatocyte, 60-agent screen, 72 hours, a value of 10,000 indicates that the drug did not inhibit viability, read-out: absolute IC50, Hepatocytes;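 further: cells were plated onto pre-diluted drug concentrations in 384-well plates, and viability was read after 72 h as CellTiter-Glo 2.0 luminescence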
Procedure: (§1) On day 0, cells were trypsinized and plated into a white walled 384-well plate containing pre-diluted known concentrations of various drugs. After 72 hours, an equal volume of Cell-Titer Glo 2.0 (G9243, Promega) was added to each well, incubated at room temperature while rocking in the dark for 15 minutes, followed by luminescence acquisition with a BioTek Synergy HT plate reader (BioTek, Winooski, VT).

[2] = tested on: HepG2; assay: 60-agent chemical screen, cell viability (Cell-Titer Glo), HepG2; type: cell-based; settings: Homo sapiens, 60-agent screen, 72 hours, a value of 10,000 indicates that the drug did not inhibit viability, read-out: absolute IC50, HepG2;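 further: luminescence read-out in 384-well plates, with cells plated directly onto drug dilutions of known concentration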
Procedure: as §1

[3] = tested on: Huh-6; assay: 60-agent chemical screen, cell viability (Cell-Titer Glo), Huh-6; type: cell-based; settings: Homo sapiens, 60-agent screen, 72 hours, a value of 10,000 indicates that the drug did not inhibit viability, read-out: absolute IC50, Huh-6
Procedure: as §1

[4] = tested on: HB-214; assay: 60-agent chemical screen, cell viability (Cell-Titer Glo), HB-214; type: cell-based; settings: Homo sapiens; 60-agent screen, 72 hours; a value of 10,000 indicates that the drug did not inhibit viability; read-out: absolute IC50, HB-214;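 further: viability read as luminescence once Cell-Titer Glo 2.0 reagent was added to drug-treated cells in 384-well plates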
Procedure: as §1

[5] = tested on: hepatoblastoma cell lines HepG2, Huh-6 and HB-214 versus hepatocytes
Procedure: as §1

[6] = cited from earlier work

SMILES	IC50 [2]	IC50 [3]	Ratio normal/cancer: average ratio of the IC50 in hepatocytes to the IC50 in hepatoblastoma cell lines [5]	IC50 [1]	IC50 [4]	side effects ([6]; irinotecan)	known toxicity ([6]; in vivo)
Cc1ccc(S(=O)(=O)/C=C/C#N)cc1 [BAY-11-7082]	–	–	1	–	–	–	–
COc1cc2nc(N3CCCN(C)CC3)nc(NC3CCN(Cc4ccccc4)CC3)c2cc1OC [BIX 01294]	2.9 µM	2.81 µM	–	2040 nM	1.72 µM	–	–
CCOC(=O)CCNc1cc(N2CCc3ccccc3CC2)nc(-c2ccccn2)n1 [GSK-J4 HCl]	> 10 µM	4.8 µM	–	> 10000 nM	> 10 µM	–	–
CC(C)n1nc(-c2ccc3oc(N)nc3c2)c2c(N)ncnc21 [INK 128]	0.126 µM	2.43 µM	–	7 nM	0.001 µM	–	–
CC(=O)c1c(C)c2cnc(Nc3ccc(N4CCNCC4)cn3)nc2n(C2CCCC2)c1=O [PD 0332991]	6.07 µM	> 10 µM	–	> 10000 nM	1.89 µM	–	–
CS(=O)(=O)c1cccc(CNc2nc(Nc3ccc4c(c3)CCC(=O)N4)ncc2C(F)(F)F)c1 [PF 573228]	–	–	1	–	–	–	–
Cc1ccc(-c2cc(C(F)(F)F)nn2-c2ccc(S(N)(=O)=O)cc2)cc1 [celecoxib]	> 10 µM	> 10 µM	–	> 10000 nM	> 10 µM	–	–
C[C@@H](Oc1cc(-c2cnn(C3CCNCC3)c2)cnc1N)c1c(Cl)ccc(F)c1Cl [crizotinib]	2.17 µM	4.42 µM	–	2160 nM	7.64 µM	–	–
Cc1nc(Nc2ncc(C(=O)Nc3c(C)cccc3Cl)s2)cc(N2CCN(CCO)CC2)n1 [dasatinib]	5.02 µM	2.62 µM	–	> 10000 nM	> 10 µM	–	–
CCc1cnn2c(NCc3ccc[n+]([O-])c3)cc(N3CCCC[C@H]3CCO)nc12 [dinaciclib]	–	–	–	1 nM	–	–	–
Nc1ccccc1NC(=O)c1ccc(CNC(=O)OCc2cccnc2)cc1 [entinostat]	0.392 µM	> 10 µM	–	217 nM	1.49 µM	–	–
CC(C)n1c(/C=C/C(O)CC(O)CC(=O)O)c(-c2ccc(F)cc2)c2ccccc21 (stereo not drawn) [fluvastatin]	> 10 µM	4.44 µM	–	–	> 10 µM	–	–
C=C[C@@]1(C)CC(=O)[C@]2(O)[C@@]3(C)[C@@H](O)CCC(C)(C)[C@@H]3[C@H](O)[C@H](OC(C)=O)[C@@]2(C)O1 [forskolin]	> 10 µM	> 10 µM	–	> 10000 nM	> 10 µM	–	–
Nc1nc(O)c2ncn(COC(CO)CO)c2n1 [ganciclovir]	> 10 µM	> 10 µM	–	> 10000 nM	> 10 µM	–	–
CCc1c2c(nc3ccc(OC(=O)N4CCC(N5CCCCC5)CC4)cc13)-c1cc3c(c(=O)n1C2)COC(=O)[C@]3(O)CC [irinotecan]	–	–	–	–	–	diarrhea and neutropenia	–
CN(C)C(=N)N=C(N)N [metformin HCL]	> 10 µM	> 10 µM	–	> 10000 nM	> 10 µM	–	–
Cc1[nH]c2ccccc2c1CCNCc1ccc(/C=C/C(=O)NO)cc1 [panobinostat]	0.08 µM	1.14 µM	–	39 nM	0.25 µM	–	–
Cc1ccc(Nc2nccc(N(C)c3ccc4c(C)n(C)nc4c3)n2)cc1S(N)(=O)=O [pazopanib]	> 10 µM	> 10 µM	–	–	> 10 µM	–	–
Nc1nc2[nH]cc(CCc3ccc(C(=O)N[C@@H](CCC(=O)O)C(=O)O)cc3)c2c(=O)[nH]1 [pemetrexed]	> 10 µM	> 10 µM	–	> 10000 nM	> 10 µM	–	–
N#CC[C@H](C1CCCC1)n1cc(-c2ncnc3[nH]ccc23)cn1 [ruxolitinib]	> 10 µM	> 10 µM	–	> 10000 nM	> 10 µM	–	–
CO[C@H]1C[C@@H]2CC[C@@H](C)[C@@](O)(O2)C(=O)C(=O)N2CCCC[C@H]2C(=O)O[C@H]([C@H](C)C[C@@H]2CC[C@@H](O)[C@H](OC)C2)CC(=O)[C@H](C)/C=C(\C)[C@@H](O)[C@@H](OC)C(=O)[C@H](C)C[C@H](C)/C=C/C=C/C=C/1C [sirolimus]	> 10 µM	> 10 µM	–	> 10000 nM	> 10 µM	–	–
C/C=C(/C)C(=O)O[C@H]1C(C)=C2[C@H]([C@@H]1OC(=O)CCCCCCC)[C@@](C)(OC(C)=O)C[C@H](OC(=O)CCC)[C@@]1(O)[C@H]2OC(=O)[C@@]1(C)O [thapsigargin]	0.021 µM	0.28 µM	–	519 nM	0.16 µM	–	significant renal toxicity
Cc1cc(Nc2cc(N3CCN(C)CC3)nc(Sc3ccc(NC(=O)C4CC4)cc3)n2)[nH]n1 [tozasertib]	> 10 µM	3.26 µM	–	> 10000 nM	1.48 µM	–	–
CN1CCc2c(c3ccccc3n2Cc2ccc(C(=O)NO)cc2)C1 [tubastatin A]	> 10 µM	> 10 µM	–	> 10000 nM	> 10 µM	–	–
O=c1ncccn1[C@@H]1O[C@H](CO)[C@@H](O)[C@H]1O [zebularine]	> 10 µM	> 10 µM	–	> 10000 nM	> 10 µM	–	–

Now from value to compound, other results behind:

IC50 [2]	IC50 [3]	Ratio normal/cancer: average ratio of the IC50 in hepatocytes to the IC50 in hepatoblastoma cell lines [5]	SMILES	IC50 [1]	IC50 [4]	side effects ([6]; irinotecan)	known toxicity ([6]; in vivo)
> 10 µM	> 10 µM	–	CC1(C)CCC(c2ccc(Cl)cc2)=C(CN2CCN(c3ccc(C(=O)NS(=O)(=O)c4ccc(N[C@H](CCN5CCOCC5)CSc5ccccc5)c(S(=O)(=O)C(F)(F)F)c4)cc3)CC2)C1 [ABT-263]	> 10000 nM	> 10 µM	–	–
> 10 µM	> 10 µM	–	CNC(=O)CN1CCC(Oc2cc3c(Nc4cccc(Cl)c4F)ncnc3cc2OC)CC1 [AZD8931]	1450 nM	> 10 µM	–	–
0.478 µM	> 10 µM	–	Cn1c(=O)n(-c2ccc(C(C)(C)C#N)cc2)c2c3cc(-c4cnc5ccccc5c4)ccc3ncc21 [BEZ235]	48 nM	0.61 µM	–	–
6.2 µM	4.81 µM	–	O=C(O)c1ccc2c(c1)nc(Nc1cccc(Cl)c1)c1ccncc12 [CX-4945]	> 10000 nM	> 10 µM	–	–
> 10 µM	> 10 µM	–	COc1ccc(C[C@@H](C)[C@@H](C)Cc2ccc(OC)c(OC)c2)cc1OC [EM1421]	> 10000 nM	> 10 µM	–	–
–	–	4	Clc1ccc(N/N=C(\c2ccccc2)c2ccccn2)nc1 [JIB-04]	–	–	–	–
> 10 µM	> 10 µM	–	CN[C@@H](C)C(=O)N[C@H](C(=O)N1CCC[C@H]1c1nc(C(=O)c2ccc(F)cc2)cs1)C1CCCCC1 [LCL161]	> 10000 nM	> 10 µM	–	–
> 10 µM	> 10 µM	–	Cc1cc(-c2ncc(CC(=O)Nc3ccc(-c4cnccn4)cn3)cc2C)ccn1 [LGK974]	7720 nM	> 10 µM	–	–
> 10 µM	> 10 µM	–	CCCc1c(OCCCOc2cc(O)c(-c3ccc(F)cc3)cc2CC)cccc1Oc1ccccc1C(=O)O [LY293111]	> 10000 nM	> 10 µM	–	–
> 10 µM	> 10 µM	–	O=C1NC(=O)C(c2cnc3ccccn23)=C1c1cn2c3c(cc(F)cc13)CN(C(=O)N1CCCCC1)CC2 [LY2090314]	837 nM	> 10 µM	–	–
> 10 µM	> 10 µM	–	CC(C)(C)Cn1c(N)nc2ccc(-c3[nH]c(C(C)(C)C)nc3-c3ccc(F)cc3)nc21 [LY2228820]	76 nM	> 10 µM	–	–
5.4 µM	5.27 µM	–	COc1cccc(OCCCN)c1-c1cc(Nc2cnc(C#N)cn2)n[nH]1 [LY2606368]	> 10000 nM	4.7 µM	–	–
> 10 µM	> 10 µM	–	C[C@@H](Oc1ccc2[nH]nc(/C=C/c3cnn(CCO)c3)c2c1)c1c(Cl)cncc1Cl [LY2874455]	2170 nM	> 10 µM	–	–
> 10 µM	> 10 µM	–	CN(C(=O)c1ccc(F)cc1C(F)(F)F)C1CCN(c2nnc(-c3ccnn3C)c3ccccc23)CC1 [LY2940680]	> 10000 nM	> 10 µM	–	–
> 10 µM	> 10 µM	–	C=CCn1c(=O)c2cnc(Nc3ccc(N4CCN(C)CC4)cc3)nc2n1-c1cccc(C(C)(C)O)n1 [MK-1775]	> 10000 nM	1.18 µM	–	–
> 10 µM	> 10 µM	–	C[C@]1(O)C[C@@H](c2nc(-c3ccc4ccc(-c5ccccc5)nc4c3)c3c(N)nccn32)C1 [OSI-906]	5900 nM	1.8 µM	–	–
> 10 µM	> 10 µM	–	CC(C)(C(=O)NCC(F)(F)C(F)(F)F)C(=O)N[C@@H]1C(=O)Nc2ccccc2-c2ccccc21 [RO4929097]	> 10000 nM	> 10 µM	–	–
> 10 µM	> 10 µM	–	CCOc1cc(C(C)(C)C)ccc1C1=N[C@@](C)(c2ccc(Cl)cc2)[C@@](C)(c2ccc(Cl)cc2)N1C(=O)N1CCN(CCCS(C)(=O)=O)CC1 [RO5045337]	> 10000 nM	4.15 µM	–	–
6.39 µM	1.56 µM	–	CC(C)N(CCCNC(=O)Nc1ccc(C(C)(C)C)cc1)C[C@H]1O[C@@H](n2cc(Br)c3c(N)ncnc32)[C@H](O)[C@@H]1O [SGC0946]	510 nM	> 10 µM	–	–
1.72 µM	4.62 µM	–	CN1CCC(CNc2ccc3ncc(-c4cccc(OC(F)(F)F)c4)n3n2)CC1 [SGI-1776]	233 nM	1.53 µM	–	–
0.124 µM	4.47 µM	–	COCCn1c2c([n+](Cc3cnccn3)c1C)C(=O)c1ccccc1C2=O [YM155]	34 nM	0.26 µM	–	–

— paper PMC6849653, “Volasertib preclinical activity in high-risk hepatoblastoma” (Oncotarget, 2019)
